#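 96-well plates; 48 h exposure; 5 concentrations. Endpoints by linear interpolation between flanking doses. Not reached: highest tested concentration assigned. Abbreviation: GI50, concentration required for 50% inhibition of growth. TGI: total growth inhibition.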
# What was measured:
# Test in all cases: inhibition of tumour cell growth, NCI panel, 48 h
# [1] = test system: COLO 205 colon
# [2] = test system: RPMI-8226 leukemia
# [3] = test system: OVCAR-3 ovarian
# [4] = test system: NCI/ADR-RES ovarian
# [5] = test system: HL-60(TB) leukemia
# [6] = test system: SNB-75 CNS
# [7] = test system: CAKI-1 renal
# [8] = test system: PC-3 prostate
# [9] = test system: OVCAR-8 ovarian
# [10] = test system: T-47D breast
# [11] = test system: SK-MEL-5 melanoma
# [12] = test system: SK-MEL-2 melanoma
# [13] = test system: U251 CNS
# [14] = test system: NCI-H226 lung
# [15] = test system: SW-620 colon
# [16] = test system: BT-549 breast
# [17] = test system: HOP-62 NSCLC
# [18] = test system: KM12 colon
# [19] = test system: HS 578T breast
# [20] = test system: SF-268 CNS
# [21] = test system: MDA-MB-231 breast
# [22] = test system: DU-145 prostate
# [23] = test system: HCT-116 colon
# [24] = test system: 786-0 renal
# [25] = test system: LOX IMVI melanoma
# [26] = test system: OVCAR-5 ovarian
# [27] = test system: SF-295 CNS
# [28] = test system: UACC-257 melanoma
structure (smiles),measurement,setting,value
CO[C@H]1/C=C/C[C@H](C)[C@@H](C)S(=O)(=O)NC(=O)c2ccc3c(c2)N(C[C@@H]2CC[C@H]21)C[C@@]1(CCCc2cc(Cl)ccc21)CO3,GI50,[1],2.7 µM
same,TGI,[1],6.6 µM
same,GI50,[2],0.132 µM
same,TGI,[2],0.534 µM
same,GI50,[3],1.9 µM
same,TGI,[3],3.75 µM
same,GI50,[4],2.23 µM
same,TGI,[4],6.6 µM
same,GI50,[5],0.246 µM
same,TGI,[5],0.655 µM
same,GI50,[6],1.34 µM
same,TGI,[6],3.03 µM
same,GI50,[7],3.45 µM
same,TGI,[7],12.9 µM
same,GI50,[8],1.98 µM
same,TGI,[8],6.23 µM
same,GI50,[9],3.72 µM
same,TGI,[9],14.4 µM
same,GI50,[10],2.75 µM
same,TGI,[10],10.8 µM
same,GI50,[11],1.61 µM
same,TGI,[11],3.15 µM
same,GI50,[12],0.321 µM
same,TGI,[12],1.43 µM
same,GI50,[13],2.47 µM
same,TGI,[13],6.86 µM
same,GI50,[14],2.66 µM
same,TGI,[14],7.4 µM
same,GI50,[15],2.84 µM
same,TGI,[15],10.3 µM
same,GI50,[16],2.23 µM
same,TGI,[16],6.99 µM
same,GI50,[17],2.35 µM
same,TGI,[17],6.2 µM
same,GI50,[18],3.17 µM
same,TGI,[18],11 µM
same,GI50,[19],1.54 µM
same,TGI,[19],7.24 µM
same,GI50,[20],3.6 µM
same,TGI,[20],14 µM
same,GI50,[21],2.11 µM
same,TGI,[21],5.64 µM
same,GI50,[22],4.56 µM
same,TGI,[22],15.3 µM
same,GI50,[23],2.75 µM
same,TGI,[23],8.35 µM
same,GI50,[24],2.9 µM
same,TGI,[24],8.27 µM
same,GI50,[25],1.84 µM
same,TGI,[25],3.41 µM
same,GI50,[26],2.91 µM
same,TGI,[26],11.9 µM
same,GI50,[27],1.97 µM
same,TGI,[27],6.05 µM
same,GI50,[28],2.99 µM
same,TGI,[28],9.69 µM
